Measured values as given in patent publication US8834870B2, “Treatment of leukemias and chronic myeloproliferative diseases with antibodies to EphA3” (Kalobios Pharmaceuticals, Inc., priority 2009, dated 2014).

Legend:
EphA3 antigen = EphA3 antigen (UniProt P29320); assay: ELISA on EphA3 antigen
[1] = tested on: bone marrow cells from AML patients; assay: Apoptosis induction (Annexin V flow cytometry), AML primary cells; format: cell-based, human; conditions: camptothecin 10 μM positive control, 24 hours
Experimental: An engineered human activating antibody that binds to EphA3 was evaluated for the ability to induce apoptosis in vitro in primary cells isolated from patients or individuals suffering from myeloproliferative disorders. Cells were seeded at 2.5×10^5 cells/well in 96-well “U”-bottom plates in 0.1 ml culture medium (RPMI 1640 with 10% fetal bovine serum). Anti-EphA3 antibody or human IgG1 isotype control antibody was added to final concentrations between 10 μg/ml and 1 ng/ml and the plates were incubated at 37° C. and 5% carbon dioxide in a tissue-culture incubator for 24 hours. As a positive control for apoptosis induction, separate cell samples were incubated with camptothecin (10 μM; Calbiochem). […]
In these samples, in each case in which CD123^+CD34^+CD38^− leukemic stem cells (LSC) could be identified, 100% of these LSC were also positive for EphA3 expression. In the majority of samples, there is good correlation between the percent of cells killed either by ADCC or apoptosis mediated by an engineered human anti-EphA3 antibody and the proportion of cells detected as positive for EphA3 by flow cytometry, indicating specificity of the antibody for EphA3-expressing cells.

[2] = tested on: peripheral blood cells from polycythemia vera (PV) patient; assay: Apoptosis induction (Annexin V flow cytometry), PV primary cells; format: cell-based, human; conditions: sample PB-2, PV; camptothecin 10 μM positive control; 24 hours
Experimental: (§1) An engineered human activating antibody that binds to EphA3 was evaluated for the ability to induce apoptosis in vitro in primary cells isolated from patients or individuals suffering from myeloproliferative disorders. Cells were seeded at 2.5×10^5 cells/well in 96-well “U”-bottom plates in 0.1 ml culture medium (RPMI 1640 with 10% fetal bovine serum). Anti-EphA3 antibody or human IgG1 isotype control antibody was added to final concentrations between 10 μg/ml and 1 ng/ml and the plates were incubated at 37° C. and 5% carbon dioxide in a tissue-culture incubator for 24 hours. As a positive control for apoptosis induction, separate cell samples were incubated with camptothecin (10 μM; Calbiochem). At the end of the incubation, cells were harvested and washed by centrifugation at 1000 rpm for 5 min followed by incubation in 0.1 ml of 1× Annexin V binding buffer (BD Pharmingen, Cat #556547, component no. 51-66121E) containing 5 μl FITC-conjugated Annexin V (BD Pharmingen, component no. 51-65874×) and 5 μl Propidium Iodide (component no. 51-66211E) for 15 minutes at room temperature in the dark. Four hundred μl of 1× binding buffer was added to each tube and annexin V-staining apoptotic cells were identified by flow cytometry. FIG. 4 provides data showing apoptosis activity of a human engineered antibody.

[3] = tested on: peripheral blood cells from essential thrombocythemia (ET) patient; assay: Apoptosis induction (Annexin V flow cytometry), ET primary cells; format: cell-based, human; conditions: sample PB-1, ET; camptothecin 10 μM positive control; 24 hours
Experimental: as §1

Chain of UniProt P29320 (P29320 21-541 limits assumed): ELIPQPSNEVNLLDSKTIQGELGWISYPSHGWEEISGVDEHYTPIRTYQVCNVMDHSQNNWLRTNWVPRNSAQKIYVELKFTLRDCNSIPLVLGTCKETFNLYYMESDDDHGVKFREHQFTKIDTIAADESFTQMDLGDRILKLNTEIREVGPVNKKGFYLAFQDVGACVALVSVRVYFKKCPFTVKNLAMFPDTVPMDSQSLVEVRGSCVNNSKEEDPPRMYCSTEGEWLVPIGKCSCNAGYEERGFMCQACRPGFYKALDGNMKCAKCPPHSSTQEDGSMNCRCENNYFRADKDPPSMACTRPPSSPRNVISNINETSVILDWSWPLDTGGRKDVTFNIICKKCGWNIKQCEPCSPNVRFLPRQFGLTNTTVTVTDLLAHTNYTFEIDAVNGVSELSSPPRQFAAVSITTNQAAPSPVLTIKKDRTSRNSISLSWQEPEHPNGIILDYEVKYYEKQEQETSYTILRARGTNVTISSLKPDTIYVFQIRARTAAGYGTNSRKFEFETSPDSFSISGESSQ

AFFINITY (EphA3 antigen) [nM]	Molecule	Camptothecin-mediated apoptosis (% cell death) ([1]; sample BM, 06, AML) [%]	Camptothecin-mediated apoptosis (% cell death) ([1]; sample BM, 07, AML) [%]	Camptothecin-mediated apoptosis (% cell death) [2] [%]	Camptothecin-mediated apoptosis (% cell death) [3] [%]
2.5	monoclonal antibody IIIA4				
	CC[C@@]1(O)C(=O)OCc2c1cc1n(c2=O)Cc2cc3ccccc3nc2-1 [Camptothecin, camptothecin]	59.8	47.8	73.2	78
